From patent publication EP0333676A2, “Use of 1-(2-ethoxy-2-(3'-pyridyl)ethyl)-4-(2'methoxy-phenyl)piperazine, for the preparation of pharmaceutical compositions useful for the treatment of lower urinary tract disfunctions and benign prostatic hypertrophy” (MALESCI ISTITUTO FARMACOBIOLOGICO S.p.A., priority 1988, dated 1989)

Columns and labels:
[1] = tested on: alpha₁-adrenoceptor; assay: Antagonism of the phenylephrine concentration-response curve in isolated rat proximal urethra; conditions: versus phenylephrine, compound at 1 nM, rightward parallel displacement of the curve
Experimental: (§1) In the "in vitro" studies, male albino rats, Wistar Nossan strain, weighing 300-350 g were used. Animals were sacrificed by cervical dislocation and the proximal urethra was quickly excised, cleaned of connective tissues and then suspended in an organ bath and tied to an isometric force transducer, under resting tension of 0.5 g. Experiments were performed at 37°C and the bathing medium (gassed with 95% O₂ and 5% CO₂) had the following composition (mM): NaCl 119, KCl 4.7, MgSO₄ 1.5, […], CaCl₂ 2.5, NaHCO₃ 25 and glucose 11. Experiments were carried out after 60 min equilibration period.
(§2) In a first group of experiments a cumulative concentration response curve to alpha₁-adrenoceptor selective agonist, phenylephrine, was obtained in control conditions or in presence of the compound of invention (1 nM). The compound of invention (1 nM) produced a rightward parallel displacement of concentration response curve to phenylephrine with a pA₂ of 9.18±0.12. In another set of experiments urethral contractions were obtained by means of field stimulation (20 Hz, 0.5 msec, maximal voltage; trains of 5 sec every 4 min). These contractions (obtained in a medium additionated with atropine 1 uM) were TTX-sensitive and probably due to stimulation of adrenergic fibers. […]

[2] = tested on: isolated urethra of rat; assay: Inhibition of field stimulation-induced contractions of isolated rat proximal urethra; conditions: inhibition of urethral contractions by field stimulation (20 Hz, 0.5 msec, maximal voltage), atropine 1 uM in medium, range 1 pM-1 nM, printed interval (0.09-0.18), read-out: EC₅₀
Experimental: as §1, §2

[3] = tested on: rat chronically treated with testosterone; assay: Transvesical cystometrogram in rats chronically treated with testosterone (urethral outflow obstruction); format: in vivo; conditions: 0.1-3 ug/Kg i.v.; rats treated for 2 weeks with testosterone propionate 3 mg/Kg s.c.; urethane anaesthesia
Experimental: (§3) In the "vivo" studies two experimental models characterized by urethral outflow obstruction were used: a) rat chronically treated with testosterone and b) rat acutely treated with hexamethonium.
(§4) Male albino rats, Wistar strain, weighting 300-350 g, were treated for 2 weeks with testosterone propionate at the dose of 3 mg/Kg s.c.. Afterwards animals were anaesthetized with urethane 40% s.c. (0.3 ml/hg) and then transvescical cystometrogram were perfused according to the method of Maggi et al. (J. Pharmacol. Meth. 15, 157; 1986). Testosterone-treated animals were characterized by the appearance of frequent, scarcely effective, micturition complexes and by a very high residual volume (about double than controls). […] It is important to underline that in urethane anaesthetized normotensive rats, i.v. administration of compound of invention exerts an hypotensive effect in the range 3-100 ug/kg.

[4] = tested on: urethane anaesthetized normotensive rats; assay: Hypotensive effect in urethane-anaesthetized normotensive rats; format: in vivo, rat; conditions: i.v. administration
Experimental: as §4

[5] = tested on: rat acutely treated with hexamethonium; assay: Transvesical cystometrogram in rats acutely treated with hexamethonium (urethral outflow obstruction); format: in vivo; conditions: pretreatment at doses lower than 3 ug/Kg i.v.
Experimental: as §3
Urethane-anaesthetized male albino rats, Wistar strain weighing 300-350 g, were used.
Administration of hexamethonium (40 mg/Kg i.v.) 5 minutes before start of transvescical cystometrogram produced in about 75% of animals an overflow incontinence coupled to high values of intravescical pressure.

SMILES: CCOC(CN1CCN(c2ccccc2OC)CC1)c1cccnc1 (racemic) [compound of invention, 1-(2-ethoxy-2-(3′-pyridyl)ethyl)-4-(2′-methoxy-phenyl)piperazine]
- pA₂ [1]: 9.18±0.12
- EC50 [2]: 0.13 nM
- voiding efficiency [3]: clear, objective and prompt beneficial action on the voiding efficiency
- dose range exerting an hypotensive effect [4]: 3 to 100 µg/kg
- intravescical pressure ([5]; hexamethonium 40 mg/Kg i.v.): lower intravescical pressure values
- overflow incontinence ([5]; hexamethonium 40 mg/Kg i.v. (about 75% of animals incontinent without pretreatment)): never produced overflow incontinence
